From patent US4092420A, “Novel soft N-chloroamino alcohol derivatives exhibiting antibacterial activity” (INTERx Research Corporation, priority 1977, dated 1978)

Assays:
[1] = prior art; cited from earlier work
[2] = tested on: K. pneumoniae; test: Minimal inhibitory concentration (MIC), Example V; type: cell-based; conditions: Klebsiella pneumoniae
Description: (§1) MINIMAL INHIBITORY CONCENTRATION OF 2-AMINO-2-METHYL-1-PROPYL
(§2) ^a Minimal inhibitory concentration expressed in parts per million
(§3) sequence inhibited the test organism at the higher concentrations.
(§4) THE ANTIBACTERIAL SCREEN - EXAMPLE V
Klebsiella pneumoniae ATCC# 10031
(§5) THE ANTIBACTERIAL SCREEN - EXAMPLES W - Z (Autotiter IV)
(§6) (a) Compounds. All compounds to be screened are weighed (approx. 10 mg) on the day preceding the test date. Each compound is solubilized on the day of assay in appropriate solvent and diluted automatically in the Autotiter IV with distilled water (buffer can be employed here also).
(§7) Bacteria: Staphylococcus aureas Smith (or 209), Escherichia coli AB 1932-1, 1100/B22 and Vogel, Streptococcus pyogenes C203 Salmonella typhimurium 14028, Bacillus subtilis 6051-1, Klebsiella pneumoniae 10031, Pseudomonas aeruginosa 9027, Bordetella bronchiseptica 4617 and Staphylococcus epidermidis 12228.
(§8) (c) Inocula. Prior to utilization in the Autotiter IV, all bacteria are cultured for 18-20 hr. (37° C) in tryptose phosphate broth (TP), except, S. pyogenes C203, which is cultured in Brain Heart Infusion broth plus 10% normal horse serum. Immediately prior to testing, each culture is adjusted to an optical density of 0.10 (650 nm), employing a Bausch & Lomb Spectronic 20, and diluted subsequently into double strength medium to approximately 2 × 10^5 viable organisms per ml.
(§9) 1. An automated injector system dispenses 0.05 ml of diluent (sterile H2 O or buffer) to all cups of the autotiter trays from rows 2 through 7.
(§10) 2. The loops (for sequential dilutions of the compounds are moistened by immersion into 70% ethyl alcohol. After removal of excess alcohol by blotting, the loops are moved to the first row of cups in the autotray containing 0.10 ml of the compound to be diluted and tested (usually, this initial concentration is 500 to 1000 mcg/ml, but can be varied upward or downward). The loops are lowered and sequentially transfer the diluted solutions of the compound through row 7.
(§11) Immediately after each dilution is made, each cup is automatically inoculated with 0.05 ml of the appropriate test organism. This inoculation derives from a second injector system containing the organism in double-strength medium. The total operation consists of the automatic dilution of a single compound in each of 8 rows of the Autotiter try.
(§12) After these operations, we reverse the tray and a second compound is diluted over the other one-half of the tray and inoculated, subsequently, with 8 organisms. Thus, for each Autotiter Tray, two compounds are screened against 8 different organisms at dilutions ranging from 1:2 to 1:128.
(§13) (e) Incubation. The inoculated Autotiter trays are incubated at 37° C for 18 - 20 hr. At the end of this period, each tray is examined for the presence or absence of growth (turbidity). The lowest concentration of the compound inhibiting growth is recorded as the minimal inhibitory concentration (MIC).

[3] = tested on: S. pyogenes; test: Minimal inhibitory concentration (MIC), Example V; type: cell-based; conditions: Streptococcus pyogenes
[4] = tested on: K. pneumoniae; test: Contact germicidal efficiency (sterilization time); type: cell-based, Klebsiella pneumoniae; conditions: Example Z
Description: (§14) CONTACT GERMICIDAL EFFICIENCY OF N-CHLORAMINES AS A FUNCTION
(§15) ^a Time intervals screened 0.5, 1, 2, 3, 4 and 5 minutes.
(§16) ^a Time intervals screened 0.5, 1, 2, 3, 4, 5, 6, 7, 8, 9 and 10
(§17) ^a Time intervals screened 0.5, 1, 2, 3, 4, and 5 minutes.
(§18) ^b Time intervals screened 0.5, 1, 2, 3, 4, 5, 6, 7, 8, 9 and 10
(§19) Immediately preceding the screen, the compound is weighed and diluted with a buffer or other solvent to give the final concentration desired. The buffer or solvent chosen depends on the conditions of the screen and could be one of the following: 0.1 M NaOAc, pH 4.6; 0.1 M NaH2 PO4, pH 7.0; 0.1 M Na2 B4 O7, pH 8.8; 35% methanol in one of the aforementioned buffers; 10% Triton × 100 in buffer, etc.
(§20) The positive chlorine concentration of the test solution is then determined iodometrically.
(§21) Media used for the Screen are Nutrient Broth, BBL# 11479 and Nutrient Agar, BBL# 11472 prepared according to label directions. The broth is dispensed in 75 ml amounts of flasks for overnight cultures and in 5 ml amounts to culture tubes for subculturing during the Screen. Agar plates are prepared as usual.
(§22) Overnight cultures are prepared by inoculating from stock cultures into the 75 ml flasks of nutrient broth and incubating for 15 hours at 37° C.
(§23) The iodometrically characterized test solution is dispensed in 5 ml amounts to seven small stoppered flasks. The organisms are screened one at a time as follows:
(§24) A 0.2 ml portion of the overnight culture is inoculated into 5 ml of 0.9% NaCl for use in controls. A 0.2 ml portion of the overnight culture is inoculated into a flask containing 5 ml of the test solution, an automatic timer is simultaneously triggered and the solution mixed. At time intervals of 30 seconds, 1, 2, 3, 4, 5, 6, 7, 8, 9, and 10 minutes a loopful of the inoculated solution is subcultured into 5 ml of sterile nutrient broth and mixed by a Vortex Genie Mixer, the high dilution serving to stop the action of the compound. At the end of the ten minute screen, the entire procedure is repeated for each of the remaining six organisms. All of the subculture tubes are incubated at 37° C and checked for signs of growth by turbidity at 24 hr., 48 hr., 3, 5, and 7 days. The earliest subculture time at which no growth is present in the subculture tube is considered the endpoint and is recorded as that time, e.g., 7 minutes.
(§25) The test solution is prepared and characterized as above but is made up at twice the concentration desired. The solution is diluted 1:1 with Rehydrated Tissue Culture Dessicated Horse Serum, Difco #5357-72 and dispensed in a 5 ml amount to a small flask. The mixture is incubated at Room Temperature for 30 minutes to allow denaturation of the compound by the serum and then screened as above.
(§26) The 5 ml mixture of serum and test solution are prepared in sequence to allow as close to 30 minutes as possible before the beginning of the screen of each organism.
as §7

[5] = tested on: B. bronchiseptica; test: Contact germicidal efficiency (sterilization time); type: cell-based, Bordetella bronchiseptica; conditions: Example Z
Description: as §14, §15, §16, §17, §18, §19, §20, §21, §22, §23, §24, §25, §26, §7

[6] = tested on: C. albicans; test: Minimal inhibitory concentration (MIC), Example V; type: cell-based; conditions: Candida albicans
Description: MINIMAL INHIBITORY CONCENTRATION OF 2-AMINO-2-METHYL-1-PROPYL […]
as §4

[7] = tested on: A. niger; test: Minimal inhibitory concentration (MIC), Example V; type: cell-based; conditions: Aspergillus niger
Description: as §1, §2, §3, §4

[8] = tested on: T. mentagrophytes; test: Minimal inhibitory concentration (MIC), Example V; type: cell-based; conditions: Trichophyton mentagrophytes
Description: as §1, §2, §3, §4

[9] = tested on: E. coli; test: Minimal inhibitory concentration (MIC), Example V; type: cell-based; conditions: Escherichia coli
Description: as §1, §2, §3, §4

[10] = tested on: S. epidermidis; test: Contact germicidal efficiency (sterilization time); type: cell-based, Staphylococcus epidermidis; conditions: Example Z, S. pidermidis, pH 4.6
Description: as §14, §15, §16, §17, §18, §19, §20, §21, §22, §23, §24, §25, §26, §7

[11] = tested on: S. aureus; test: Minimal inhibitory concentration (MIC), Example V; type: cell-based; conditions: Staphylococcus aureus
Description: as §4, §5, §6, §7, §8, §9, §10, §11, §12, §13

[12] = tested on: P. aeruginosa; test: Minimal inhibitory concentration (MIC), Example V; type: cell-based; conditions: Pseudomonas aeruginosa
Description: as §4, §5, §6, §7, §8, §9, §10, §11, §12, §13

[13] = tested on: E. coli; test: Contact germicidal efficiency (sterilization time); type: cell-based, Escherichia coli; conditions: Example Z, pH 4.6, in presence of horse serum, 5800 ppm (1057 PPMCl+)
Description: (§27) CONTACT GERMICIDAL EFFICIENCY OF
as §15, §16, §17, §18, §19, §20
as §21, with “usual. […]” for “usual.”
(§28) A 0.2 ml portion of the overnight culture is inoculated into 5 ml of 0.9% NaCl for use in controls. […] The earliest subculture time at which no growth is present in the subculture tube is considered the endpoint and is recorded as that time, e.g., 7 minutes. […]

[14] = tested on: S. aureus; test: Contact germicidal efficiency (sterilization time); type: cell-based, Staphylococcus aureus; conditions: Example Z, pH 4.6, in presence of horse serum, 5800 ppm (1057 PPMCl+)
Description: as §27, §15, §16, §17, §18, §19, §20
as §21, with “usual. […]” for “usual.”
as §28

[15] = tested on: P. aeruginosa; test: Contact germicidal efficiency (sterilization time); type: cell-based, Pseudomonas aeruginosa; conditions: Example Z
Description: as §14, §15, §16, §17, §18, §19, §20, §21, §22, §23, §24, §25, §26, §7

[16] = Solubility in 30% methanol: 0.1 M sodium dihydrogen phosphate, pH 7.0; type: physicochemical; conditions: 0.1 m nah2po4, pH 7, organic solvent or mixture, Concentration (footnote: Solubility in 30% methanol: 0.1 M sodium dihydrogen phosphate, pH 7.0)
[17] = pH 4.6, absence of horse serum, IV j 79 ppm (21 PPMCl+), IV k 5800 (1057), IV l 1112 (209)
[18] = pH 4.6, in presence of horse serum, 5800 ppm (1057 PPMCl+)

For `NCl` [NH2 Cl, chloramine], the “Deactivation by denaturing agents (e.g., horse serum)” value [1] is given as “readily deactivated”.
In the case of `ClNCl` [NHCl2], the “Deactivation by denaturing agents (e.g., horse serum)” value [1] is listed as “readily deactivated”.
For `C[n+]1cccc(C(=O)OCC(C)(C)N(Cl)Cl)c1` [IV k, 2-N,N-Dichloroamino-2-methyl-1-propyl nicotinate methylsulfate], the MIC [2] was over 250 µg/mL, the MIC [3] was over 250 µg/mL and the “Sterilization Time” value [4, 17] was 2 min. For the same compound, the “Sterilization Time” value [4, 18] was 2 min, the “Sterilization Time” value [5, 17] was 1 min and the “Sterilization Time” value [5, 18] was 2 min. For the same compound, the MIC [6] was over 250 µg/mL, the MIC [7] was 125 µg/mL and the MIC [8] was 125 µg/mL. For the same compound, the MIC [9] was over 250 µg/mL, the “Sterilization Time” value ([10]; absence of horse serum, IV j 79 ppm (21 PPMCl+), IV k 5800 (1057), IV l 1112 (209)) was 4 min and the “Sterilization Time” value ([10]; in presence of horse serum, 5800 ppm (1057 PPMCl+)) was 4 min. The MIC [11] was over 250 µg/mL, the MIC [12] was over 250 µg/mL and the “Sterilization Time” value [13] was 0.5 min. The “Sterilization Time” value [14] was 6 min, the “Sterilization Time” value [15, 17] was 2 min and the “Sterilization Time” value [15, 18] was 2 min.
`CCCC(=O)OCC(C)(C)N.Cl` [III b, 2-Amino-2-methyl-1-propyl butyrate hydrochloride] gave an MIC [2] of over 62.5 µg/mL, an MIC [3] of over 62.5 µg/mL and an MIC [6] of over 62.5 µg/mL. For the same compound, the solubility [16] was 1070 µg/mL, the MIC [7] was over 62.5 µg/mL and the MIC [8] was over 62.5 µg/mL. The MIC [9] was over 62.5 µg/mL, the MIC [11] was over 62.5 µg/mL and the MIC [12] was over 62.5 µg/mL.
